Our source for the IC50 values is patent US8946223B2, “Substituted hydroxamic acids and uses thereof” (Millennium Pharmaceuticals, Inc., priority 2010, dated 2015).

The target of the experiment is T1, purified human HDAC6 (Homo sapiens, UniProt Q9UBN7).
T1 construct: purchased BPS Bioscience 5006
T1 sequence (Q9UBN7 1-1215): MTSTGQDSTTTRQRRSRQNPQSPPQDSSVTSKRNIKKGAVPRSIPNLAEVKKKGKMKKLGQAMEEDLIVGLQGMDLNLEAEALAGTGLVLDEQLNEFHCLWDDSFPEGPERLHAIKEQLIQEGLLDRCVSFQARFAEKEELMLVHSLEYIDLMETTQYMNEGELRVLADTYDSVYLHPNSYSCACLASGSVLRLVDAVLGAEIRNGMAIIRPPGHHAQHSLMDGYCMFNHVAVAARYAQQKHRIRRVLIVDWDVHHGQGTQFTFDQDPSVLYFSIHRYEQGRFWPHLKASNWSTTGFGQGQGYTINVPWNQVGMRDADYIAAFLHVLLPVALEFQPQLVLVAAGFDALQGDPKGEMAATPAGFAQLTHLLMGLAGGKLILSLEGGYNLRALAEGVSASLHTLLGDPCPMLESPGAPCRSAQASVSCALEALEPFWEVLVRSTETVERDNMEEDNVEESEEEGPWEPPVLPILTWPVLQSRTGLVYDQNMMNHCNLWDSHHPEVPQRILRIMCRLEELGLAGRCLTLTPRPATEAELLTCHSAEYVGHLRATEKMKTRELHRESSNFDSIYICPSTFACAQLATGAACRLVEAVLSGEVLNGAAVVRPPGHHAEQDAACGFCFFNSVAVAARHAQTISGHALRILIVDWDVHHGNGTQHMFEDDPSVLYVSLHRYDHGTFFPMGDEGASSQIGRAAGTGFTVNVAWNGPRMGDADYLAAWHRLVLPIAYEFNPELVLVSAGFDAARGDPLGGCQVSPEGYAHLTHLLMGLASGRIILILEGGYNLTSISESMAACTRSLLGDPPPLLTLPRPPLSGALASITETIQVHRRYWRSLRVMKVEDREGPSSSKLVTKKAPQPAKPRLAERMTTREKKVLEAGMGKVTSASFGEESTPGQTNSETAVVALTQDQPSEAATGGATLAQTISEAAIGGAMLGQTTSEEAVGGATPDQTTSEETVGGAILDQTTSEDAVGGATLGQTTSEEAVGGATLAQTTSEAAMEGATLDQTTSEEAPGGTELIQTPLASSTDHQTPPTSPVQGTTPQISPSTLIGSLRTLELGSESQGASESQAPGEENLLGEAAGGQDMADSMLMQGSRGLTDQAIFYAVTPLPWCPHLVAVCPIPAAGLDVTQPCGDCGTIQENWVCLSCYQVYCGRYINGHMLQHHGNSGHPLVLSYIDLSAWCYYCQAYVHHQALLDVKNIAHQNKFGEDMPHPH
The experiment in a line: HDAC6 enzyme assay. It counts as biochemical. The method, then:
To measure the inhibition of HDAC6 activity, purified human HDAC6 (BPS Bioscience; Cat. No. 5006) is incubated with substrate Ac-Arg-Gly-Lys(Ac)-AMC peptide (Bachem Biosciences; Cat. No. I-1925) for 1 hour at 30° C. in the presence of test compounds or vehicle DMSO control. The reaction is stopped with the HDAC inhibitor trichostatin A (Sigma; Cat. No. T8552) and the amount of Arg-Gly-Lys-AMC generated is quantitated by digestion with trypsin (Sigma; Cat. No. T1426) and subsequent measurement of the amount of AMC released using a fluorescent plate reader (Pherastar; BMG Technologies) set at Ex 340 nm and Em 460 nm. Concentration response curves are generated by calculating the fluorescence increase in test compound-treated samples relative to DMSO-treated controls, and enzyme inhibition (IC50) values are determined from those curves.

[1] abbreviates: bins: greater than 1 μM and less than 10 μM, greater than 10 μM.

In the case of `O=C(NO)c1cn2c(n1)CN(C(=O)c1cc3ccccc3s1)CC2` [Compound I-44, 7-(1-benzothien-2-ylcarbonyl)-N-hydroxy-5,6,7,8-tetrahydroimidazo[1,2-a]pyrazine-2-carboxamide], where the note is “bin: less than 100 nM”, the IC50 (commonly the point on the concentration scale where inhibition reaches its midpoint) is < 0.1 µM. Still for that read-out and setting: the value for `Cn1c(C(=O)N2CCn3nc(C(=O)NO)cc3C2)cc2ccccc21` [Compound I-31, N-hydroxy-5-[(1-methyl-1H-indol-2-yl)carbonyl]-4,5,6,7-tetrahydropyrazolo[1,5-a]pyrazine-2-carboxamide] was < 0.1 µM.

`O=C(NO)c1cc2n(c1)CCCN(C(=O)C13CC4CC(CC(C4)C1)C3)C2` [Compound I-38, 2-[1-adamantylcarbonyl]-N-hydroxy-2,3,4,5-tetrahydro-1H-pyrrolo[1,2-a][1,4]diazepine-8-carboxamide] returned an IC50 under setting [1] of 1 to 10 µM.

In the case of `CC1(C(=O)N2CCn3nc(C(=O)NO)cc3C2)CCCCC1` [Compound I-6, N-hydroxy-5-[(1-methylcyclohexyl)carbonyl]-4,5,6,7-tetrahydropyrazolo[1,5-a]pyrazine-2-carboxamide], under setting [1], the IC50 is 1 to 10 µM. On the same count and under the same terms, then `CC(C)(C)C(=O)N1CCn2cc(C(=O)NO)nc2C1` [Compound I-41, 7-(2,2-dimethylpropanoyl)-N-hydroxy-5,6,7,8-tetrahydroimidazo[1,2-a]pyrazine-2-carboxamide], with 1 to 10 µM; and `Cc1nc(CC(=O)N2CCn3nc(C(=O)NO)cc3C2)cs1` [Compound I-90, N-hydroxy-5-[(2-methyl-1,3-thiazol-4-yl)acetyl]-4,5,6,7-tetrahydropyrazolo[1,5-a]pyrazine-2-carboxamide], with 1 to 10 µM; and `CC1(C(=O)N2CCn3cc(C(=O)NO)nc3C2)CCCCC1` [Compound I-26, N-hydroxy-7-(1-methylcyclohexanecarbonyl)-5,6,7,8-tetrahydroimidazo[1,2-a]pyrazine-2-carboxamide], with 1 to 10 µM. In the case of `Cc1onc(-c2ccccc2)c1CN1CCn2cc(C(=O)NO)cc2C1=O` [Compound I-197, N-hydroxy-2-[(5-methyl-3-phenylisoxazol-4-yl)methyl]-1-oxo-1,2,3,4-tetrahydropyrrolo[1,2-a]pyrazine-7-carboxamide], for the setting “bin: less than 100 nM”, the IC50 is < 0.1 µM. Same read-out and setting: the value for `Cc1c(C(=O)N2CCn3cc(C(=O)NO)cc3C2)cc(-c2ccccc2)n1-c1ccccc1` [Compound I-87, N-hydroxy-2-[(2-methyl-1,5-diphenyl-1H-pyrrol-3-yl)carbonyl]-1,2,3,4-tetrahydropyrrolo[1,2-a]pyrazine-7-carboxamide] was < 0.1 µM; that for `O=C(NO)c1cc2n(c1)CCN(C(=O)c1csc3ccccc13)C2` [Compound I-10, 2-(1-benzothien-3-ylcarbonyl)-N-hydroxy-1,2,3,4-tetrahydropyrrolo[1,2-a]pyrazine-7-carboxamide] was < 0.1 µM. On to `O=C(NO)c1cc2n(c1)CCN(C(=O)c1ccc(-c3ccccc3)cc1)C2` [Compound I-51, 2-(biphenyl-4-ylcarbonyl)-N-hydroxy-1,2,3,4-tetrahydropyrrolo[1,2-a]pyrazine-7-carboxamide], for which, where the note is “bin: less than 100 nM”, the IC50 is < 0.1 µM. As for `CC(C)(C(=O)N1CCn2nc(C(=O)NO)cc2C1)c1ccc(Cl)cc1` [Compound I-37, 5-[2-(4-chlorophenyl)-2-methylpropanoyl]-N-hydroxy-4,5,6,7-tetrahydropyrazolo[1,5-a]pyrazine-2-carboxamide], the IC50 under setting [1] was 1 to 10 µM. The same measure, in the same setting: then `CC(C)(C)C(=O)N1CCn2nc(C(=O)NO)cc2C1` [Compound I-36, 5-(2,2-dimethylpropanoyl)-N-hydroxy-4,5,6,7-tetrahydropyrazolo[1,5-a]pyrazine-2-carboxamide], with > 10 µM. In the case of `O=C(NO)c1cn2c(n1)CN(C(=O)c1ccc(-c3ccccc3)cc1)CC2` [Compound I-2, 7-(biphenyl-4-ylcarbonyl)-N-hydroxy-5,6,7,8-tetrahydroimidazo[1,2-a]pyrazine-2-carboxamide], the half-maximal inhibitory concentration (IC50) (bin: less than 100 nM) is < 0.1 µM. On the same count and under the same terms, the value for `Cn1ccc2cc(C(=O)N3CCn4cc(C(=O)NO)cc4C3)ccc21` [Compound I-89, N-hydroxy-2-[(1-methyl-1H-indol-5-yl)carbonyl]-1,2,3,4-tetrahydropyrrolo[1,2-a]pyrazine-7-carboxamide] was < 0.1 µM. `O=C(NO)c1cc2n(n1)CCCN(C(=O)C13CC4CC(CC(C4)C1)C3)C2` [Compound I-72, 5-(1-adamantylcarbonyl)-N-hydroxy-5,6,7,8-tetrahydro-4H-pyrazolo[1,5-a][1,4]diazepine-2-carboxamide]: the IC50 under setting [1] lay in the range of 1 to 10 µM.

In the case of `O=C(NO)c1cc2n(c1)CCN(Cc1ccccc1)C2=O` [Compound I-42, 2-benzyl-N-hydroxy-1-oxo-1,2,3,4-tetrahydropyrrolo[1,2-a]pyrazine-7-carboxamide], the IC50 (bin: less than 100 nM) is < 0.1 µM. `Cn1c(C(=O)N2CCCn3cc(C(=O)NO)cc3C2)cc2oc(-c3ccc(C(F)(F)F)cc3)cc21` [Compound I-5, N-hydroxy-2-({4-methyl-2-[4-(trifluoromethyl)phenyl]-4H-furo[3,2-b]pyrrol-5-yl}carbonyl)-2,3,4,5-tetrahydro-1H-pyrrolo[1,2-a][1,4]diazepine-8-carboxamide] yielded an IC50 under setting [1] of 1 to 10 µM. `O=C(NO)c1cc2n(n1)CCN(CCCn1cccc1)C2=O` [Compound I-109, N-hydroxy-4-oxo-5-[3-(1H-pyrrol-1-yl)propyl]-4,5,6,7-tetrahydropyrazolo[1,5-a]pyrazine-2-carboxamide] came in with an IC50 under setting [1] of 1 to 10 µM. Take `Cn1c(C(=O)N2CCn3cc(C(=O)NO)cc3C2)cc(Cl)c1Cl` [Compound I-91, 2-[(4,5-dichloro-1-methyl-1H-pyrrol-2-yl)carbonyl]-N-hydroxy-1,2,3,4-tetrahydropyrrolo[1,2-a]pyrazine-7-carboxamide]: the IC50 (bin: less than 100 nM) is < 0.1 µM.
